One compound from US20220265597A1, “ANTIVIRAL EFFECTS OF NARASIN IN SWINE FEED” (Elanco US Inc., priority 2014, published 2022) can be followed below.

In the assay the test system is PEDV. Put plainly: Enteric clinical observation scoring (diarrhea, depression, gauntness) of nursery pigs challenged with PEDV. Also noted: Depression score, Severity: scale not given here. The following applies: for Depression score, Severity / Diarrhea score, Severity / Gauntness score, Severity: average of worst score of each pig over 14-d period; for Depression score, Incidence / Diarrhea score, Incidence / Gauntness score, Incidence: pigs affected/pigs; for Gauntness score, Mean of Day 0 to 14: score 0-2; for Depression score, Mean of Day 0 to 14: score 0-3; for Diarrhea score, Mean of Day 0 to 14: score 1-4. It is filed as in vivo, pig. As for the experimental part: The seventy-five piglets were randomly assigned to one of three treatment groups: control (no ionophore), narasin (30 mg/kg) and narasin (60 mg/kg). They acclimatized to their environment and were fed daily for seven days prior to exposure with PEDV on Day 0. Treatment continued for 14 days following challenge. Pigs from the three treatment groups were administered orally with 4×10^4 TCID50/mL of the PEDV isolate PEDV/USA/NC/2013/49469 (College of Veterinary Medicine, Iowa State University). The piglets were monitored daily for changes in clinical parameters, clinical score for diarrhea, depression and gauntness, rate of food consumption, and rate of body weight change and viral swabs were taken daily to determine viral shedding.
Incidence and severity of the score data (diarrhea, depression, and gauntness) were summarized by frequencies and mean scores on a daily basis.
Table 2 indicates the scoring system used to measure diarrhea, depression, and gauntness. Table 3 compares the mean scores for diarrhea, depression and gauntness in nursery pigs whose diet included 0, 30 or 60 mg/kg narasin.

[1] abbreviates: 0, 30, 60 mg/kg feed, 14-d period.

`CC[C@@H](C(=O)O)[C@@H]1O[C@@H]([C@@H](C)[C@H](O)[C@H](C)C(=O)[C@H](CC)[C@H]2O[C@]3(C=C[C@@H](O)[C@]4(CC[C@@](C)([C@H]5CC[C@](O)(CC)[C@H](C)O5)O4)O3)[C@H](C)C[C@@H]2C)[C@@H](C)C[C@@H]1C` [narasin]: under setting [1], the “effect of narasin level on mean of depression scores” value was “not affected” and the “effect of narasin level on mean or severity of gauntness scores” value was “little effect”. For the same compound, the “incidence of depression, animals” value (30 mg/kg feed, 14-d period) came out at 4 animals. For the same compound, where the note is “30 mg/kg feed”, the “Depression score, Severity” value was determined as 0.16; the “Diarrhea score, Severity” value is reported as 2.72; the “Gauntness score, Severity” value is on record as 0.68; the “Depression score, Incidence” value was 4/25. In addition, under “30 mg/kg feed”, the “Diarrhea score, Incidence” value was 19/25; the “Gauntness score, Incidence” value is recorded as 14/25; the “Gauntness score, Mean of Day 0 to 14” value amounted to 0.14; the “Depression score, Mean of Day 0 to 14” value is 0.03. Further, under “30 mg/kg feed”, the “Diarrhea score, Mean of Day 0 to 14” value was 1.45. The “incidence of depression, animals” value (60 mg/kg feed, 14-d period) is recorded as 3 animals. For the same compound, for the setting “60 mg/kg feed”, the “Depression score, Severity” value is recorded as 0.12; the “Diarrhea score, Severity” value turned out to be 2.48; the “Gauntness score, Severity” value is given as 0.52; the “Depression score, Incidence” value is 3/25. Under “60 mg/kg feed”, the “Diarrhea score, Incidence” value is 19/25; the “Gauntness score, Incidence” value is recorded as 11/25; the “Gauntness score, Mean of Day 0 to 14” value was 0.14; the “Depression score, Mean of Day 0 to 14” value was 0.02. The “Diarrhea score, Mean of Day 0 to 14” value (60 mg/kg feed) is 1.37.
